Reference: patent US11091591B2, “Carbohydrate ligands that bind to antibodies against glycoepitopes of glycosphingolipids” (UNIVERSITÄT BASEL, priority 2015, dated 2021)
“Also recorded” adds a separate entry of the source.

Assays:
[1] = target: anti-GD1b IgG antibodies of neuropathy patient serum; assay: Competitive binding ELISA (GanglioCombi), GD1b-coated wells, patient serum IgG; set-up: species or system human; conditions: serum P22 (IgG), dilution 1:50; table prints GD1a (IgG)
Method: (§1) The synthesized carbohydrate polymers 6 (GM1a epitope), 26 (GD1b epitope), and 34 (GT1a epitope) were tested in the GanglioCombi(-Light) ELISA and/or, in case of compound 6, the anti-GM1 ELISA (all kits from Bühlmann Laboratories, Schönenbuch, Switzerland). The 96 well microtiter plates coated with purified gangliosides from bovine cauda equina were washed two times with washing buffer (300 μl/well) before adding the carbohydrate polymers in eight different concentrations, 25 μl/well. The patient sera containing anti-ganglioside IgG or IgM antibodies were added in the appropriate dilutions, 25 μl/well (2× concentrated), to obtain a total of 50 μl volume per well. […] Finally, a stop solution (0.25 M sulfuric acid) was added (100 μl/well) and the degree of colorimetric reaction was determined by absorption measurement at 450 nm with a microplate reader (Spectramax 190, Molecular Devices, California, USA).
(§2) As indicated, the synthesized carbohydrate polymers 6 (GM1a epitope), 26 (GD1b epitope), and 34 (GT1a epitope) were tested in the GanglioCombi(-Light) ELISA and/or, in case of compound 6, the anti-GM1 ELISA (all kits from Bühlmann Laboratories, Schönenbuch, Switzerland). […] After a washing step ganglioside-bound antibodies (IgM/IgG) were detected with horseradish peroxidase labeled anti-human IgM or anti-human IgG antibodies, followed by a colorimetric reaction. […]

[2] = test system: anti-GM1a IgM antibodies of neuropathy patient sera; assay: Competitive binding ELISA (GanglioCombi/anti-GM1), GM1a-coated wells, patient sera IgM; set-up: species or system human
Method: as §1, §2

[3] = test system: anti-GM1a IgG antibodies of neuropathy patient sera; assay: Competitive binding ELISA (GanglioCombi/anti-GM1), GM1a-coated wells, patient sera IgG; set-up: species or system human
Method: as §1, §2

[4] = test system: anti-GQ1b IgG antibodies of neuropathy patient sera; assay: Competitive binding ELISA (GanglioCombi), GQ1b-coated wells, patient sera IgG; set-up: species or system human
Method: The synthesized carbohydrate polymers 6 (GM1a epitope), 26 (GD1b epitope), and 34 (GT1a epitope) were tested in the GanglioCombi(-Light) ELISA and/or, in case of compound 6, the anti-GM1 ELISA (all kits from Bühlmann Laboratories, Schönenbuch, Switzerland). The 96 well microtiter plates coated with purified gangliosides from bovine cauda equina were washed two times with washing buffer (300 μl/well) before adding the carbohydrate polymers in eight different concentrations, 25 μl/well. The patient sera containing anti-ganglioside IgG or IgM antibodies were added in the appropriate dilutions, 25 μl/well (2× concentrated), to obtain a total of 50 μl volume per well. The plate was covered with a plate sealer and incubated for 2 h at 4-8° C. The wells were washed three times with wash buffer (300 μl/well) before either the anti-human IgM antibody-horseradish peroxidase conjugate or the anti-human IgG antibody-horseradish peroxidase conjugate was added (100 μl/well). The plate was incubated for 2 h at 4-8° C. […] Finally, a stop solution (0.25 M sulfuric acid) was added (100 μl/well) and the degree of colorimetric reaction was determined by absorption measurement at 450 nm with a microplate reader (Spectramax 190, Molecular Devices, California, USA).
As indicated, the synthesized carbohydrate polymers 6 (GM1a epitope), 26 (GD1b epitope), and 34 (GT1a epitope) were tested in the GanglioCombi(-Light) ELISA and/or, in case of compound 6, the anti-GM1 ELISA (all kits from Bühlmann Laboratories, Schönenbuch, Switzerland). […] After a washing step ganglioside-bound antibodies (IgM/IgG) were detected with horseradish peroxidase labeled anti-human IgM or anti-human IgG antibodies, followed by a colorimetric reaction. Successful competition of the compounds with gangliosides led to a decrease in measured OD450 nm, (optical density), because they block the binding sites of anti-ganglioside antibodies, preventing their binding to immobilized gangliosides. […] IgG and IgM antibody titers were determined for each serum in preliminary experiments. […]

[5] = test system: anti-HNK-1 (anti-MAG) IgM antibodies; assay: Immunological mouse model for anti-MAG neuropathy; assay type: in vivo; conditions: immunized BALB/c mice, 10 mg/kg intravenous, up to 168 h (seven days) after administration
Method: (§3) The synthesized carbohydrate polymer 86 (HNK-1 epitope mimetic 58) was tested in the anti-MAG ELISA (kit from Bühlmann Laboratories, Schönenbuch, Switzerland). The assay protocol was performed according to the one described above for the GanglioCombi(-Light) ELISA. To determine the in vitro IC50 of polymer 86, the assay was performed with co-incubation of polymer (25 μl/well) and a mouse monoclonal anti-HNK-1 (anti-MAG) IgM antibody (25 μl/well) at a final dilution of 1:1000. To determine the in vivo efficacy of polymer 86, the assay was performed by incubation of mouse plasma diluted 1:100 (50 μl/well). Both, the mouse monoclonal anti-HNK-1 (anti-MAG) IgM and anti-HNK-1 (anti-MAG) IgM in plasma of immunized BALB/c mice (pre- and post-treatment) were detected with goat anti-mouse IgM HRP conjugate (Sigma Aldrich, A8786) diluted 1:10′000.
Six gender matched BALB/c wild type mice at the age of 6 weeks were injected subcutaneously at multiple sites on the lower back with a total of 100 μg of the glycosphingolipids SGPG and SGLPG purified from bovine cauda equina (both glycolipids contain the HNK-1 carbohydrate epitope). The isolation of glycolipids was performed according to a protocol described by Burger et al. (Journal of Immunological Methods 1991, 140, 31-36). […] Mouse plasma samples were analyzed by the above described anti-MAG ELISA.

[6] = test system: mouse monoclonal anti-HNK-1 (anti-MAG) IgM antibody; assay: Competitive binding anti-MAG ELISA, MAG-coated wells
Method: as §3

GD1b Polymer [Compound 26]
IC50 [1]: 313 µM

GM1a Polymer [Compound 6]
IC50 ([2]; serum P3, GM1a (IgM), dilution 1:50): 375 nM | IC50 ([2]; serum P4, GM1a (IgM), dilution 1:400): 0.0594 nM | IC50 ([3]; serum P21, GM1a (IgG), dilution 1:1'300): 0.219 µM | IC50 ([3]; serum PP IgG Pos., GM1a (IgG), dilution 1:1'200): 28 µM

GT1a Polymer [Polymer 34]
neutralization of patient sera directed against GQ1b ([4]; sera EK-GCO 1803 (IgG) and P23 (IgG)): neutralized | IC50 ([4]; serum EK-GCO 1803, GQ1b/GT1a (IgG), dilution 1:300): 12.5 µM | IC50 ([4]; serum P23, GQ1b/GT1a (IgG), dilution 1:50): 348 µM

HNK-1 Polymer [Compound 86]
reduction of anti-HNK-1 (anti-MAG) IgM antibody levels [5]: significantly reduced; also recorded: significant reduction | inhibition of binding of mouse monoclonal anti-HNK-1 IgM to the HNK-1 epitope on MAG [6]: nanomolar concentrations | IC50 ([6]; mouse anti-HNK-1 antibody, HNK-1 (IgM), final dilution 1:1000): 0.0513 ± 0.0442 µM
